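Values below derive from 48-hour exposures of cells grown in 96-well plates, with endpoints linearly interpolated between the two concentrations bracketing the appropriate inhibition level. GI50 = concentration required for 50% inhibition of growth.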 Calls of active or inactive are those of the source. No stated cut-off is given here; in the data, active = GI50 up to about 1.1 µM and inactive = higher.
Legend:
Assay in all cases: growth of human tumour cells (NCI), 48 h
HOP-62 = tested on: HOP-62
DLD-1 = tested on: DLD-1
786-0 = tested on: 786-0
OVCAR-5 = tested on: OVCAR-5
KM-20L2 = tested on: KM-20L2
SNB-75 = tested on: SNB-75
UO-31 = tested on: UO-31
SF-268 = tested on: SF-268
RXF 393 = tested on: RXF 393
TK-10 = tested on: TK-10
NCI-H226 = tested on: NCI-H226
HCT-116 = tested on: HCT-116
HCC 2998 = tested on: HCC 2998
SNB-19 = tested on: SNB-19
SK-MEL-5 = tested on: SK-MEL-5
SW-620 = tested on: SW-620
SF-295 = tested on: SF-295
RPMI-8226 = tested on: RPMI-8226
SK-OV-3 = tested on: SK-OV-3
M19-MEL = tested on: M19-MEL
SN12C = tested on: SN12C
K562 = tested on: K562
UACC-257 = tested on: UACC-257
IGROV-1 = tested on: IGROV-1
SK-MEL-2 = tested on: SK-MEL-2
SK-MEL-28 = tested on: SK-MEL-28
M14 = tested on: M14
MOLT-4 = tested on: MOLT-4
DMS-114 = tested on: DMS-114
EKVX = tested on: EKVX
OVCAR-3 = tested on: OVCAR-3
CCRF-CEM = tested on: CCRF-CEM
LXFL 529 = tested on: LXFL 529
NCI-H460 = tested on: NCI-H460
OVCAR-4 = tested on: OVCAR-4
NCI-H23 = tested on: NCI-H23
UACC-62 = tested on: UACC-62
A498 = tested on: A498
XF498 = tested on: XF498
ACHN = tested on: ACHN
SR = tested on: SR
HOP-92 = tested on: HOP-92
KM12 = tested on: KM12
DMS-273 = tested on: DMS-273
SNB-78 = tested on: SNB-78
U-251 = tested on: U-251
HT-29 = tested on: HT-29
A549 = tested on: A549
COLO 205 = tested on: COLO 205
HCT-15 = tested on: HCT-15
Malme-3M = tested on: Malme-3M
SF-539 = tested on: SF-539
HL-60 = tested on: HL-60
LOX IMVI = tested on: LOX IMVI
OVCAR-8 = tested on: OVCAR-8
HOP-18 = tested on: HOP-18
NCI-H522 = tested on: NCI-H522
CAKI-1 = tested on: CAKI-1

SMILES: CCOC(=O)N1C2C=C(C)C(ON2C(=O)c2ccccc2)C2C(C)C(=O)N21 (stereo not given)
- GI50 (HOP-62): > 100 µM (inactive)
- GI50 (DLD-1): > 100 µM (inactive)
- GI50 (786-0): > 100 µM (inactive)
- GI50 (OVCAR-5): > 100 µM (inactive)
- GI50 (KM-20L2): > 100 µM (inactive)
- GI50 (SNB-75): 23.6 µM (inactive)
- GI50 (UO-31): > 100 µM (inactive)
- GI50 (SF-268): > 100 µM (inactive)
- GI50 (RXF 393): > 100 µM (inactive)
- GI50 (TK-10): > 100 µM (inactive)
- GI50 (NCI-H226): > 100 µM (inactive)
- GI50 (HCT-116): > 100 µM (inactive)
- GI50 (HCC 2998): > 100 µM (inactive)
- GI50 (SNB-19): > 100 µM (inactive)
- GI50 (SK-MEL-5): > 100 µM (inactive)
- GI50 (SW-620): > 100 µM (inactive)
- GI50 (SF-295): > 100 µM (inactive)
- GI50 (RPMI-8226): > 100 µM (inactive)
- GI50 (SK-OV-3): > 100 µM (inactive)
- GI50 (M19-MEL): > 100 µM (inactive)
- GI50 (SN12C): > 100 µM (inactive)
- GI50 (K562): > 100 µM (inactive)
- GI50 (UACC-257): > 100 µM (inactive)
- GI50 (IGROV-1): > 100 µM (inactive)
- GI50 (SK-MEL-2): > 100 µM (inactive)
- GI50 (SK-MEL-28): > 100 µM (inactive)
- GI50 (M14): > 100 µM (inactive)
- GI50 (MOLT-4): > 100 µM (inactive)
- GI50 (DMS-114): > 100 µM (inactive)
- GI50 (EKVX): > 100 µM (inactive)
- GI50 (OVCAR-3): > 100 µM (inactive)
- GI50 (CCRF-CEM): > 100 µM (inactive)
- GI50 (LXFL 529): > 100 µM (inactive)
- GI50 (NCI-H460): > 100 µM (inactive)
- GI50 (OVCAR-4): > 100 µM (inactive)
- GI50 (NCI-H23): > 100 µM (inactive)
- GI50 (UACC-62): > 100 µM (inactive)
- GI50 (A498): > 100 µM (inactive)
- GI50 (XF498): > 100 µM (inactive)
- GI50 (ACHN): > 100 µM (inactive)
- GI50 (SR): > 100 µM (inactive)
- GI50 (HOP-92): > 100 µM (inactive)
- GI50 (KM12): > 100 µM (inactive)
- GI50 (DMS-273): > 100 µM (inactive)
- GI50 (SNB-78): > 100 µM (inactive)
- GI50 (U-251): > 100 µM (inactive)
- GI50 (HT-29): > 100 µM (inactive)
- GI50 (A549): > 100 µM (inactive)
- GI50 (COLO 205): > 100 µM (inactive)
- GI50 (HCT-15): > 100 µM
- GI50 (Malme-3M): > 100 µM (inactive)
- GI50 (SF-539): > 100 µM (inactive)
- GI50 (HL-60): > 100 µM (inactive)
- GI50 (LOX IMVI): > 100 µM (inactive)
- GI50 (OVCAR-8): > 100 µM (inactive)
- GI50 (HOP-18): > 100 µM (inactive)

SMILES: CC(=O)O[C@H]1C(=O)[C@@]2(C)C(C(OC(=O)c3ccccc3)[C@]3(O)CC(OC(=O)C(O)C(NC(=O)c4ccccc4)c4ccc(C)cc4)C(C)=C1C3(C)C)[C@]1(OC(C)=O)CO[C@@H]1C[C@@H]2O (stereo not given in full)
- GI50 (HOP-62): 0.0995 µM (active)
- GI50 (DLD-1): 0.186 µM (active)
- GI50 (786-0): 0.073 µM (active)
- GI50 (OVCAR-5): 0.0618 µM (active)
- GI50 (KM-20L2): 0.031 µM (active)
- GI50 (SNB-75): 0.0531 µM (active)
- GI50 (UO-31): 2 µM (inactive)
- GI50 (SF-268): 3.64 µM (inactive)
- GI50 (RXF 393): 0.0074 µM (active)
- GI50 (TK-10): 3.08 µM (inactive)
- GI50 (HCT-116): 0.00938 µM (active)
- GI50 (SNB-19): 0.0243 µM (active)
- GI50 (SW-620): 0.00555 µM (active)
- GI50 (SF-295): 0.0787 µM (active)
- GI50 (RPMI-8226): 0.0117 µM (active)
- GI50 (SK-OV-3): 0.0117 µM (active)
- GI50 (M19-MEL): 0.0195 µM (active)
- GI50 (SN12C): 0.0545 µM (active)
- GI50 (K562): 0.0308 µM (active)
- GI50 (UACC-257): 0.0656 µM (active)
- GI50 (IGROV-1): 0.0215 µM (active)
- GI50 (SK-MEL-2): 0.0179 µM (active)
- GI50 (M14): 0.0161 µM (active)
- GI50 (MOLT-4): 0.0163 µM (active)
- GI50 (DMS-114): 0.0197 µM (active)
- GI50 (EKVX): 8.95 µM (inactive)
- GI50 (OVCAR-3): 0.00673 µM (active)
- GI50 (CCRF-CEM): 0.0147 µM (active)
- GI50 (NCI-H522): 0.0108 µM (active)
- GI50 (LXFL 529): 0.0199 µM (active)
- GI50 (NCI-H460): 0.00826 µM (active)
- GI50 (CAKI-1): 0.104 µM (active)
- GI50 (OVCAR-4): 3.75 µM (inactive)
- GI50 (NCI-H23): 0.0251 µM (active)
- GI50 (UACC-62): 0.043 µM (active)
- GI50 (A498): 12 µM (inactive)
- GI50 (XF498): 0.0025 µM (active)
- GI50 (ACHN): 0.466 µM (active)
- GI50 (HOP-92): 0.565 µM (active)
- GI50 (KM12): 0.0137 µM (active)
- GI50 (DMS-273): 0.0123 µM (active)
- GI50 (SNB-78): 0.507 µM (active)
- GI50 (U-251): 0.0197 µM (active)
- GI50 (HT-29): 0.0094 µM (active)
- GI50 (A549): 0.0179 µM (active)
- GI50 (COLO 205): 0.0153 µM (active)
- GI50 (HCT-15): 0.897 µM
- GI50 (Malme-3M): 0.0538 µM (active)
- GI50 (SF-539): 0.0106 µM (active)
- GI50 (HL-60): 0.0069 µM (active)
- GI50 (LOX IMVI): 0.033 µM (active)
- GI50 (OVCAR-8): 0.00979 µM (active)
- GI50 (HOP-18): 4.01 µM (inactive)

SMILES: COc1ccc(/C=C2\CCc3ccccc3C2=O)cc1OC
- GI50 (HOP-62): 76.7 µM (inactive)
- GI50 (DLD-1): 21.9 µM (inactive)
- GI50 (786-0): 34.5 µM (inactive)
- GI50 (OVCAR-5): 67.3 µM (inactive)
- GI50 (KM-20L2): 30.8 µM (inactive)
- GI50 (SNB-75): 21.4 µM (inactive)
- GI50 (UO-31): 29.2 µM (inactive)
- GI50 (SF-268): 20.8 µM (inactive)
- GI50 (TK-10): 32.6 µM (inactive)
- GI50 (HCT-116): 17.9 µM (inactive)
- GI50 (HCC 2998): 45.5 µM (inactive)
- GI50 (SNB-19): 46 µM (inactive)
- GI50 (SK-MEL-5): 15.9 µM (inactive)
- GI50 (SW-620): 28.4 µM (inactive)
- GI50 (SF-295): 32.9 µM (inactive)
- GI50 (RPMI-8226): 13.9 µM (inactive)
- GI50 (SK-OV-3): 18.7 µM (inactive)
- GI50 (M19-MEL): 30.1 µM (inactive)
- GI50 (SN12C): 25.2 µM (inactive)
- GI50 (K562): 23.2 µM (inactive)
- GI50 (UACC-257): 18.9 µM (inactive)
- GI50 (IGROV-1): 27.4 µM (inactive)
- GI50 (SK-MEL-2): 31.1 µM (inactive)
- GI50 (SK-MEL-28): 25.3 µM (inactive)
- GI50 (M14): 22.4 µM (inactive)
- GI50 (MOLT-4): 21.4 µM (inactive)
- GI50 (DMS-114): 17.1 µM (inactive)
- GI50 (EKVX): 51.8 µM (inactive)
- GI50 (OVCAR-3): 33.6 µM (inactive)
- GI50 (CCRF-CEM): 24.8 µM (inactive)
- GI50 (NCI-H522): 17.1 µM (inactive)
- GI50 (LXFL 529): 25.7 µM (inactive)
- GI50 (NCI-H460): 34.8 µM (inactive)
- GI50 (CAKI-1): 31.6 µM (inactive)
- GI50 (OVCAR-4): 17.8 µM (inactive)
- GI50 (NCI-H23): 19.6 µM (inactive)
- GI50 (UACC-62): 16 µM (inactive)
- GI50 (A498): 46.6 µM (inactive)
- GI50 (XF498): 17.7 µM (inactive)
- GI50 (ACHN): 24.5 µM (inactive)
- GI50 (KM12): 19.6 µM (inactive)
- GI50 (SNB-78): 33.7 µM (inactive)
- GI50 (U-251): 31 µM (inactive)
- GI50 (HT-29): 27.8 µM (inactive)
- GI50 (A549): 38.2 µM (inactive)
- GI50 (COLO 205): 19.5 µM (inactive)
- GI50 (HCT-15): 17.2 µM
- GI50 (Malme-3M): 38.3 µM (inactive)
- GI50 (SF-539): 22.3 µM (inactive)
- GI50 (OVCAR-8): 32.1 µM (inactive)
- GI50 (HOP-18): 33 µM (inactive)
